What was measured:
hepatic Kupffer cells = experiment: Mouse model treated with MMF by oral gavage: light microscopy of tissues, Kupffer cells and IMPDH2 expression; assay type: in vivo; conditions: MMF 120 mg/kg daily for over two weeks by oral gavage
Experimental: To further study the potential changes caused by MMF treatment, an animal model (mouse) was used and treated with MMF 120 mg/kg daily for over two weeks by oral gavage. As a control, another group of mice was treated with the vehicle used for MMF. Among the issues investigated (e.g., liver, kidney, ovary, brain, white adipose and brown adipose tissues, pancreas, stomach, lung), a major change that is easily detected by light microscope (400× magnification) is pointed on hepatic Kupffer cells. […] In addition, IMPDH2 expression levels within the Kupffer cells were increased compared to MMF-untreated mouse liver.

mouse liver hepatocytes = experiment: Mouse study: liver histology and EM image analysis of MMF-treated vs untreated mice; assay type: in vivo
Experimental: The body weights of the mice were recoded every day. […] The rest of the mice were sacrificed on day 14 and a necropsy was performed on the surviving mice.
H&E and trichrome staining was performed on each liver sections from 3 MMF treated and 5 untreated mice at a CLIA-certified laboratory at CHLA.
Ultrastructural analysis was performed as described for human liver biopsies on the mouse liver tissue from the MMF treated and untreated mice. The EM images were captured digitally at the same magnification (18,000×). Thirty hepatocytes per mouse liver are selected randomly and the numbers of the mitochondria and lipid droplets were counted per hepatocytes using the digital images. In addition, the greatest dimensions of randomly selected 50 mitochondria per hepatocytes from each mouse were measured using an image analysis software, Cellsens® (Olympus, Tokyo, Japan).
The numbers of the mitochondria and the lipid droplets and the sizes of the mitochondria of the hepatocytes from MMF treated and untreated mice were compared by repeated measures mixed model analysis, with […] as a random effect and group as fixed, at a 0.005 significance level, using Prism8 software (Graphpad Software, San Diego, CA, USA).

transplanted liver = experiment: Transplant liver biopsies (histology, EM, LFTs) of liver transplant recipients treated with MMF; assay type: in vivo, human
Experimental: One biopsy from a patient (Case 4) was performed for surveillance purpose. Ultrastructural analysis included obtaining a small portion of the liver biopsies and post-fixing in osmium tetroxide and embedded in epoxy resin. Ultra-thin sections were stained with uranyl acetate/lead citrate. Detailed evaluation was made using Morgagni transmission electron microscope (EM, FEI, Hillsboro, OR). 2 H&E (hematoxylin and eosin) and 5 special (1 each for PAS, PASD, reticulin, iron and trichrome) stained slides were used per biopsy. ACR was diagnosed and scored using the Rejection Activity Index (RAI), which included: 1) portal inflammation (score 1-3), 2) bile duct damage (score 1-3), and 3) venous endothelial inflammation (score 1-3). Each score was added (RAI) and the degree of ACR was scored as follows: RAI=0-9; <3: borderline/indeterminate ACR, 3-4: mild ACR, 5-7: moderate ACR and >7: severe ACR. (Banff; 1997). Nonspecific hepatocellular injury is often referred to “reactive changes”. Histologic features of “reactive changes” include enlarged hepatocytes with hydropic changes (expanded, pale to clear cytoplasm) and coarse eosinophilic granules (e.g. mega-mitochondria), and nuclei with anisonucleosis and bi- and multi-nucleation, cholestasis, steatosis and necrosis. Necrosis can range from single cell necrosis (acidophil bodies) to rarely broad necrosis with collapsed lobules.

[1] = cited from earlier work
Kupffer cells = experiment: Human liver specimens from MMF-treated patients: macrophages in livers (Kupffer cells); assay type: in vivo
[2] = test system: WT-PI5P4Kβ/Pip4K2b−/− cells; experiment: Lysosomal acidification in serum starved WT-PI5P4Kβ/Pip4K2b−/− cells; assay type: cell-based; conditions: MPA treatment for 2 h
[3] = EM image analysis, MMF-treated for 14 days vs untreated group
[4] = Case 1-3, liver transplant recipients treated with MMF
[5] = the 11 patients with elevated LFTs

Row | SMILES | changes in the other tissues by standard light microscopic analysis (hepatic Kupffer cells; kidney, ovary, brain, adipose tissues, pancreas, stomach, lung) | Kupffer cell size and numbers (hepatic Kupffer cells; light microscope 400×, vs vehicle) | IMPDH2 expression levels within the Kupffer cells (hepatic Kupffer cells; vs MMF-untreated mouse liver) | degree of mitochondrial pleomorphism (size differences) in the hepatocytes (mouse liver hepatocytes; [3]) | numbers of lipids (lipid droplets) in the hepatocytes (mouse liver hepatocytes; [3]) | numbers of mitochondria in the hepatocytes (mouse liver hepatocytes; [3]) | death during treatment (mouse liver hepatocytes; MMF treated group, 14 day treatment) | liver histology (H&E) (mouse liver hepatocytes; MMF-treated for 14 days vs untreated mice) | electron microscopy (EM) finding in transplant liver biopsies (transplanted liver; [4]) | histology of transplant liver biopsies (transplanted liver; [4]) | LFTs after stopping or reducing MMF (transplanted liver; Case 1 and 2) | patients with elevated LFTs ([1]; of 79 renal transplant recipients treated with MMF) [%] | abnormal LFTs after reduction or withdrawal of MMF ([1]; renal transplant recipients with elevated LFTs) | ALT, median and range [1, 5] | AST, median and range [1, 5] | number and size of macrophages in livers (Kupffer cells) (Kupffer cells) | lysosomal acidification [2]
1 | COc1c(C)c2c(c(O)c1C/C=C(\C)CCC(=O)OCCN1CCOCC1)C(=O)OC2 [MMF, mycophenolate mofetil] | did not show any significant changes | enlarged (hyperplasia/activated) and increased in their numbers | increased | significantly increased | significantly increased | significantly increased | Two mice in the MMF treated group died | no recognizable differences | mitochondrial pleomorphism and crystalloid inclusions | only mild nonspecific hepatocellular injury | improved | 13.9 | normalized | 222.0 (51-508) U/L | 83.0 (50-123) U/L | significant increase | 
2 | COc1c(C)c2c(c(O)c1C/C=C(\C)CCC(=O)O)C(=O)OC2 [MPA, mycophenolic acid] |  |  |  |  |  |  |  |  |  |  |  |  |  |  |  |  | suppressed lysosomal acidification

— patent publication US12083123B2, “Method for the detection of drug-induced organ or tissue injury in IMPDH inhibitor treated patients” (University of Cincinnati, priority 2020, dated 2024)
